According to US20050054531A1, “N-(phosphonomethyl) glycine (glyphosate) salt, a preparation process thereof, a concentrate composition and a phytotoxic formulation comprising it, and a method to combat weeds in a crop with a formulation thereto” (priority 2003, published 2005):
“Also recorded” adds a separate entry of the source.

What was measured:
Bermuda grass [1] = experiment: Field observations on activity rate: control of Bermuda grass (Example 3); format: in vivo, Cynodon dactylon; parameters: key: beginning of the effect (BE); death of the plant (DP); without symptoms (WS); details: visual, 5,000 cm^3/ha (SQUADRON 24% 10,000)
Protocol: (§1) Products were applied on a plot with maize stubble, preparing it for sowing wheat, where most abundant weeds were Aleppo grass (Sorghum halepense), water grass, jungle rice (Echinochloa crusgalli, Echinochloa colonum), and Bermuda grass (Cynodon dactylon).
(§2) The assessment was performed visually on 3, 4, 5, 8, and 10 days after application for jungle rice, and Aleppo grass, and 4,7,10, and 14 days for Bermuda grass, where the obtained effects were recorded and identified as follows: beginning of the effect (BE), death of the plant (DP), and without symptoms (WS).

Sunchillo (White aster) = experiment: Weed control in apple culture (Example 5): Sunchillo; format: in vivo, Wedelia glauca; details: 4 l/ha (1,440 g/ha 100% acid)
Protocol: (§3) Observations: Only one dose of each product was tested in three repetitions, on areas of 2 m×8 m=16 m^2.

Bermuda grass [2] = experiment: Weed control in apple culture (Example 5): Bermuda grass; format: in vivo, Cynodon dactylon; details: 4 l/ha (1,440 g/ha 100% acid)
Protocol: as §3

Apple, Red Delicious = experiment: Phytotoxicity to the fruit tree (Example 5); format: in vivo; details: apple culture; 4 l/ha
Protocol: Variety: Hybrid. Red Delicious.
Phenologic status: with fruits of 2 cm diameter.
as §3

[3] = test system: jungle rice and Aleppo grass; experiment: Field observations on activity rate: control of jungle rice and Aleppo grass (Example 3); format: in vivo; parameters: key: beginning of the effect (BE); death of the plant (DP); without symptoms (WS); details: visual, 5,000 cm^3/ha (SQUADRON 24% 10,000)
Protocol: as §1, §2

Aleppo grass = experiment: Weed control in apple culture (Example 5): Aleppo grass; format: in vivo, Sorghum halepensis; details: 4 l/ha (1,440 g/ha 100% acid)
Protocol: as §3

Soya A-6443 = experiment: Phytotoxicity on the soy crop (Example 6); format: in vivo; details: 2,000 and 3,000 cm^2/ha; soy at R-4/5
From the text: (§4) OBJECTIVE: The subject of the present assay comprises the assessment of different Glyphosate formulations on annual and perennial weeds in a resistant soy crop.
(§5) Crop data were as follows: • Species: Soya • Variety: A-6443 • See-planting time: Second. • Preceding crop: Wheat • Density of seeds planted: 33 grains/m^2 • Density of grown plants: 28 pl/m^2 • Space between furrows: 0.52 m. • Culture system: Direct seed-planting. • Phenologic status on application: R-4/5
(§6) The product was applied with a carbon dioxide (CO2) hand backpack, provided with four tips separated by 0.50 m each, with a plain fan-type 110 O2 pastille. Applied volume was of 110 1/ha, at a pressure of 45 lb/cm^2

[4] = test system: Blite, Pigweed, and Aleppo grass; experiment: Control of soy weeds (Example 6): Blite, Pigweed, and Aleppo grass; format: in vivo, Amaranthus quitensis, Chenopodium album, Sorghum halepense
From the text: as §4, §5
(§7) Random blocks design was used, with four repetitions per treatment. The size of the parcels were: 4 m wide per 15 m long (60 m^2), totaling 240 m^2 per treatment.
as §6
(§8) The assessments were carried out visually by comparison with control non-applied parcels, and at 5, 10, 15, and 25 days after the application date en each case, where the intervals between each application from the beginning of the treatment were 5, 5, and 10 days, respectively.
(§9) Variance analysis (ANOVA) and Duncan Test were performed with the results obtained, in order to detect mean differences.

[5] = test system: Bermuda grass and Nutgrass; experiment: Control of soy weeds (Example 6): Bermuda grass and Nutgrass; format: in vivo, Cynodon dactylon, Cyperus rotundus
From the text: as §4, §5, §7, §6, §8, §9

[6] = test system: Aleppo grass, Bermuda grass, Blite, Wild buckwheat, Nutgrass; experiment: Field comparison of salt, trunk mixture and Rondo on renovation ground prior to cane plantation (Example 4); format: in vivo; details: scale (1) out of control to (10) excellent control
From the text: APPLICATION: On renovation ground
TYPE OF TREATMENT: TOTAL (PRIOR TO CANE PLANTATION)
EXPERIMENTAL DESIGN: RANDOMIZED BLOCKS
VOLUME PER HECTARE: 120 liters

[7] = stated in the formulation process; cited from earlier work
[8] = Glyphosate triazolamine salt 2,000 / Rondo 2,500 cm^2/ha
[9] = Glyphosate triazolamine salt 3,000 / Rondo 5,000 cm^2/ha

## 1H-1,2,4-triazole-3-yl-amine N-(phosphonomethyl)-glycine salt [Glyphosate triazolamine salt]
Bermuda grass [1]; 4 days after application
  Control of Bermuda grass, 4 DAYS: BE
Bermuda grass [1]; 7 days after application
  Control of Bermuda grass, 7 DAYS: BE
Bermuda grass [1]; 10 days after application
  Control of Bermuda grass, 10 DAYS: DP
Bermuda grass [1]; 14 days after application
  Control of Bermuda grass, 14 DAYS: DP
Sunchillo (White aster); 38 days after application
  COUNT, averages of blocks, C (Sunchillo): 75
Sunchillo (White aster); 51 days after application
  COUNT, averages of blocks, C (Sunchillo): 90
Sunchillo (White aster); 99 days after application
  COUNT, averages of blocks, C (Sunchillo): 98
Bermuda grass [2]; 38 days after application
  COUNT, averages of blocks, B (Bermuda grass): 70
Bermuda grass [2]; 51 days after application
  COUNT, averages of blocks, B (Bermuda grass): 80
Bermuda grass [2]; 99 days after application
  COUNT, averages of blocks, B (Bermuda grass): 90
Apple, Red Delicious
  phytotoxicity to the fruit tree: No phytotoxicity to the fruit tree was observed
[3]; 3 days after application
  Control of jungle rice and Aleppo grass, 3 DAYS: BE
[3]; 4 days after application
  Control of jungle rice and Aleppo grass, 4 DAYS: BE
[3]; 5 days after application
  Control of jungle rice and Aleppo grass, 5 DAYS: DP
[3]; 8 days after application
  Control of jungle rice and Aleppo grass, 8 DAYS: DP
[3]; 10 days after application
  Control of jungle rice and Aleppo grass, 10 DAYS: DP
Aleppo grass; 38 days after application
  COUNT, averages of blocks, A (Aleppo grass): 65
Aleppo grass; 51 days after application
  COUNT, averages of blocks, A (Aleppo grass): 85
Aleppo grass; 99 days after application
  COUNT, averages of blocks, A (Aleppo grass): 95
Soya A-6443
  phytotoxicity on soy leaves / soy crops: showed phytotoxicity problems on soy leaves; also recorded: showed phytotoxicity over soy crops
[4]; [8]
  Control % after 5 DAYS, data average by assessment date: 58.33%
  Control % after 10 DAYS, data average by assessment date: 100.00%
  Control % after 15 DAYS, data average by assessment date: 100.00%
  Control % after 25 DAYS, data average by assessment date: 100.00%
  Control % after 5 days, I: 60%
  Control % after 5 days, II: 55%
  Control % after 5 days, III: 60%
  Control % after 5 days, MEAN: 58.33%
  Control % after 10 days, I: 100%
  Control % after 10 days, II: 100%
  Control % after 10 days, III: 100%
  Control % after 10 days, MEAN: 100.00%
  Control % after 15 days, I: 100%
  Control % after 15 days, II: 100%
  Control % after 15 days, III: 100%
  Control % after 15 days, MEAN: 100.00%
  Control % after 10 days, I (TABLE NO. 4): 100%
  Control % after 10 days, II (TABLE NO. 4): 100%
  Control % after 10 days, III (TABLE NO. 4): 100%
  Control % after 10 days, MEAN (TABLE NO. 4): 100.00%
[4]; [9]
  Control % after 5 DAYS, data average by assessment date: 95.00%
  Control % after 10 DAYS, data average by assessment date: 100.00%
  Control % after 15 DAYS, data average by assessment date: 100.00%
  Control % after 25 DAYS, data average by assessment date: 100.00%
  Control % after 5 days, I: 100%
  Control % after 5 days, II: 90%
  Control % after 5 days, III: 95%
  Control % after 5 days, MEAN: 95.00%
  Control % after 10 days, I: 100%
  Control % after 10 days, II: 100%
  Control % after 10 days, III: 100%
  Control % after 10 days, MEAN: 100.00%
  Control % after 15 days, I: 100%
  Control % after 15 days, II: 100%
  Control % after 15 days, III: 100%
  Control % after 15 days, MEAN: 100.00%
  Control % after 10 days, I (TABLE NO. 4): 100%
  Control % after 10 days, II (TABLE NO. 4): 100%
  Control % after 10 days, III (TABLE NO. 4): 100%
  Control % after 10 days, MEAN (TABLE NO. 4): 100.00%
[5]; [8]
  Control % after 5 days, I: 60%
  Control % after 5 days, II: 50%
  Control % after 5 days, III: 50%
  Control % after 5 days, MEAN: 53.00%
  Control % after 10 days, I: 75%
  Control % after 10 days, II: 90%
  Control % after 10 days, III: 90%
  Control % after 10 days, MEAN: 85.00%
  Control % after 15 days, I: 85%
  Control % after 15 days, II: 90%
  Control % after 15 days, III: 90%
  Control % after 15 days, MEAN: 88.33%
  Control % after 25 days, I: 85%
  Control % after 25 days, II: 90%
  Control % after 25 days, III: 90%
  Control % after 25 days, MEAN: 88.33%
  Control %, 5 DAYS, data average by assessment date: 53.33 B %
  Control %, 10 DAYS, data average by assessment date: 85.00 BC %
  Control %, 15 DAYS, data average by assessment date: 88.33 B %
  Control %, 25 DAYS, data average by assessment date: 83.33 B %
[5]; [9]
  Control % after 5 days, I: 70%
  Control % after 5 days, II: 80%
  Control % after 5 days, III: 75%
  Control % after 5 days, MEAN: 75.00%
  Control % after 10 days, I: 100%
  Control % after 10 days, II: 100%
  Control % after 10 days, III: 100%
  Control % after 10 days, MEAN: 100.00%
  Control % after 15 days, I: 100%
  Control % after 15 days, II: 100%
  Control % after 15 days, III: 100%
  Control % after 15 days, MEAN: 100.00%
  Control % after 25 days, I: 100%
  Control % after 25 days, II: 100%
  Control % after 25 days, III: 100%
  Control % after 25 days, MEAN: 100.00%
  Control %, 5 DAYS, data average by assessment date: 75.00 A %
  Control %, 10 DAYS, data average by assessment date: 100.00 A %
  Control %, 15 DAYS, data average by assessment date: 100.00 A %
  Control %, 25 DAYS, data average by assessment date: 100.00 A %
[5]; higher dosage treatments: Glyphosate triazolamine salt 3,000 / Rondo 5,000 cm^2/ha
  final control over Bermuda grass and nutgrass: total control
[6]; 3 liters/ha
  ASSAY OBSERVATIONS, control, 5 DAYS: 4
  ASSAY OBSERVATIONS, control, 15 DAYS: 7
  ASSAY OBSERVATIONS, control, 30 DAYS: 9
[6]; 4 liters/ha
  ASSAY OBSERVATIONS, control, 5 DAYS: 4
  ASSAY OBSERVATIONS, control, 15 DAYS: 7
  ASSAY OBSERVATIONS, control, 30 DAYS: 10

## O=C(O)CNCP(=O)(O)O [Glyphosate, N-(phosphonomethyl)-glycine]
[7]
  solubility in water (general statement): practically non-soluble in water

## Nc1nc[nH]n1 [triazolamine, 1H-1,2,4-triazol-3-yl-amine]
[7]
  solubility in water (general statement): quite soluble
